pEC50: −log10 of the molar value. Read-outs that look alike come from different tables or passages of the source. Numbered stars: 1 amine (or outer) side, 2 acyl side, 3 side chain; on linkers, the order of the positions; unused ones are H or OH. Square brackets hold non-standard residues; d marks the D form. Side chains are listed from the residue outwards. Peptide text beside a SMILES is read from it. * marks the point of attachment. Phe(4-CH2NH2) = NCc1ccc(C[C@H](N)C(=O)O)cc1; C18 diacid = O=C(O)CCCCCCCCCCCCCCCCC(=O)*; γGlu = O=C(O)[C@H](CCC(=O)[*:2])N[*:1]; Met(O2) = CS(=O)(=O)CC[C@H](N)C(=O)O; αMeD = C[C@](N)(CC(=O)O)C(=O)O; AEEA = NCCOCCOCC(=O)O; Aib = CC(C)(N)C(=O)O
Tests used:
human GCGR = biological target: T1, human GCGR (Homo sapiens, UniProt P47871); experiment: cAMP activity assay at the Glucagon receptor (GCGR); type: cell-based; conditions: for hGCGR/hGLP1R (hTone): ratio of GCGR EC50 to GLP1R EC50
T1 construct: expressed in transfected cells; growth medium holds Blasticidin and Hygromycin
T1 sequence (P47871 26-477): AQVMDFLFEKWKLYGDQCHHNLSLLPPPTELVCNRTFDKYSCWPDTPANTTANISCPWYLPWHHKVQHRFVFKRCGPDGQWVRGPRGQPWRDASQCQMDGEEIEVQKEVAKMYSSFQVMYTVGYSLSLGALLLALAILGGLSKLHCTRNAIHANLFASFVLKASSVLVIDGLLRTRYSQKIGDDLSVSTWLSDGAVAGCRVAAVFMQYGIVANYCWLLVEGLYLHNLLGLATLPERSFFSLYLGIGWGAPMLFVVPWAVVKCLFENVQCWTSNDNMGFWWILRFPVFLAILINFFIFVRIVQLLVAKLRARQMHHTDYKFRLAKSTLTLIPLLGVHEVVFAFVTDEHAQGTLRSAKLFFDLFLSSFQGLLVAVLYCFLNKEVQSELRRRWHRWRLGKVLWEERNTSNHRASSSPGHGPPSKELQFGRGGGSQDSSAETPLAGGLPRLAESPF
Procedure, shortened: (§1)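 Peptides serially diluted from DMSO (10 points) and added to frozen-stock cells bearing human GLP1R (10,000 cells/well) or GCGR (30,000 cells/well), 1 h at RT, dark. EC50 by four-parameter logistic fit of HitHunter cAMPXS luminescence, read following overnight RT incubation.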

human GLP1R = biological target: T2, human GLP1R (Homo sapiens, UniProt P43220); experiment: cAMP activity assay at the GLP-1 receptor (GLP1R); type: cell-based
T2 construct: expressed in transfected cells; growth medium holds Blasticidin and Hygromycin
T2 sequence (P43220 24-463): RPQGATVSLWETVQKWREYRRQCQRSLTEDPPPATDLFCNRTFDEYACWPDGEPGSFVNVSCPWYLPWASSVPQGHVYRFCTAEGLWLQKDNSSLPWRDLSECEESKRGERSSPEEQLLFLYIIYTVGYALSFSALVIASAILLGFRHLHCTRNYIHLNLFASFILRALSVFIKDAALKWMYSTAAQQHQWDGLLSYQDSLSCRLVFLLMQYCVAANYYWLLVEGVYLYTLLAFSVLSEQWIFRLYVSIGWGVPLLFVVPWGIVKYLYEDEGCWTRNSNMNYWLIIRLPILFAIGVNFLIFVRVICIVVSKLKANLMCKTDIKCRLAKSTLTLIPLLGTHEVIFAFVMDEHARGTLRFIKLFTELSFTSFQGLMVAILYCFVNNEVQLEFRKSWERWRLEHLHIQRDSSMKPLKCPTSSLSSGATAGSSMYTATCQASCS
Procedure, shortened: as §1

[1] = summary statement: EC50 at each of the glucagon and GLP-1 receptors, read-out: EC50 at the glucagon receptor
[2] = cells expressing human GLP1R, cAMP production, buffer with or without 20% human serum (not stated which), read-out: GLP1R EC50 human
[3] = summary statement: EC50 at each of the glucagon and GLP-1 receptors, read-out: EC50 at the GLP-1 receptor
[4] = cells expressing human GCGR, cAMP production, buffer with or without 20% human serum (not stated which), read-out: GCGR EC50 human

CC(C)C[C@H](NC(=O)[C@H](Cc1ccc(O)cc1)NC(=O)[C@H](CCCCN)NC(=O)[C@H](CO)NC(=O)[C@H](Cc1ccc(O)cc1)NC(=O)[C@H](CC(=O)O)NC(=O)[C@H](CO)NC(=O)[C@@H](NC(=O)[C@H](Cc1ccccc1)NC(=O)[C@@H](NC(=O)CNC(=O)[C@H](CCC(N)=O)NC(=O)C(C)(C)NC(=O)[C@@H](N)Cc1c[nH]cn1)[C@@H](C)O)[C@@H](C)O)C(=O)N[C@@H](CC(=O)O)C(=O)N[C@@H](C)C(=O)N[C@@H](CCCNC(=N)N)C(=O)N[C@@H](C)C(=O)N[C@@H](C)C(=O)N[C@@H](CCCCNC(=O)COCCOCCNC(=O)COCCOCCNC(=O)COCCOCCNC(=O)CC[C@H](NC(=O)CCCCCCCCCCCCCCCCC(=O)O)C(=O)O)C(=O)N[C@@H](CC(=O)O)C(=O)N[C@@H](Cc1ccccc1)C(=O)N[C@H](C(=O)N[C@@H](CCC(N)=O)C(=O)N[C@@H](Cc1c[nH]c2ccccc12)C(=O)N[C@@H](CC(C)C)C(=O)N[C@@H](CCS(C)(=O)=O)C(=O)N[C@@](C)(CC(=O)O)C(=O)N[C@H](C(N)=O)[C@@H](C)O)C(C)C [TP677] (H-H[Aib]QGTFTSDYSKYLDARAAK([AEEA-AEEA-AEEA-γGlu-C18 diacid])DFVQWL[Met(O2)][αMeD]T-NH2; N-terminus assumed)
hGCGR/hGLP1R (hTone) (human GCGR): 1.9
pEC50 (human GCGR; [1]): > 8.30
pEC50 (human GLP1R; [2]): 9.12
pEC50 (human GLP1R; [3]): > 8.30

CC(C)C[C@H](NC(=O)[C@H](Cc1ccc(O)cc1)NC(=O)[C@H](CCCCN)NC(=O)[C@H](CO)NC(=O)[C@H](Cc1ccc(O)cc1)NC(=O)[C@H](CC(=O)O)NC(=O)[C@H](CO)NC(=O)[C@@H](NC(=O)[C@H](Cc1ccccc1)NC(=O)[C@@H](NC(=O)CNC(=O)[C@H](CCC(N)=O)NC(=O)C(C)(C)NC(=O)[C@@H](N)Cc1c[nH]cn1)[C@@H](C)O)[C@@H](C)O)C(=O)N[C@@H](CC(=O)O)C(=O)N[C@@H](C)C(=O)N[C@@H](CCCNC(=N)N)C(=O)N[C@@H](C)C(=O)N[C@@H](C)C(=O)N[C@@H](Cc1ccc(CNC(=O)COCCOCCNC(=O)COCCOCCNC(=O)COCCOCCNC(=O)CC[C@H](NC(=O)CCCCCCCCCCCCCCCCC(=O)O)C(=O)O)cc1)C(=O)N[C@@H](CC(=O)O)C(=O)N[C@@H](Cc1ccccc1)C(=O)N[C@H](C(=O)N[C@@H](CCC(N)=O)C(=O)N[C@@H](Cc1c[nH]c2ccccc12)C(=O)N[C@@H](CC(C)C)C(=O)N[C@@H](CC(C)C)C(=O)N[C@@H](CC(=O)O)C(=O)N[C@H](C(N)=O)[C@@H](C)O)C(C)C [TP678] (H-H[Aib]QGTFTSDYSKYLDARAA[Phe(4-CH2NH2)]([AEEA-AEEA-AEEA-γGlu-C18 diacid])DFVQWLLDT-NH2; N-terminus assumed)
pEC50 (human GCGR; [4]): 9.60
hGCGR/hGLP1R (hTone) (human GCGR): 0.3
pEC50 (human GCGR; [1]): > 8.30
pEC50 (human GLP1R; [3]): > 8.30

CC(C)C[C@H](NC(=O)[C@H](Cc1ccc(O)cc1)NC(=O)[C@H](CCCCN)NC(=O)[C@H](CO)NC(=O)[C@H](Cc1ccc(O)cc1)NC(=O)[C@H](CC(=O)O)NC(=O)[C@H](CO)NC(=O)[C@@H](NC(=O)[C@H](Cc1ccccc1)NC(=O)[C@@H](NC(=O)CNC(=O)[C@H](CCC(N)=O)NC(=O)C(C)(C)NC(=O)[C@@H](N)Cc1c[nH]cn1)[C@@H](C)O)[C@@H](C)O)C(=O)N[C@@H](CC(=O)O)C(=O)N[C@@H](C)C(=O)N[C@@H](CCCNC(=N)N)C(=O)N[C@@H](C)C(=O)N[C@@H](C)C(=O)N[C@@H](CCC(N)=O)C(=O)N[C@@H](Cc1ccc(CNC(=O)COCCOCCNC(=O)COCCOCCNC(=O)COCCOCCNC(=O)CC[C@H](NC(=O)CCCCCCCCCCCCCCCCC(=O)O)C(=O)O)cc1)C(=O)N[C@@H](Cc1ccccc1)C(=O)N[C@H](C(=O)N[C@@H](CCC(N)=O)C(=O)N[C@@H](Cc1c[nH]c2ccccc12)C(=O)N[C@@H](CC(C)C)C(=O)N[C@@H](CC(C)C)C(=O)N[C@@H](CC(=O)O)C(=O)N[C@H](C(N)=O)[C@@H](C)O)C(C)C [TP679] (H-H[Aib]QGTFTSDYSKYLDARAAQ[Phe(4-CH2NH2)]([AEEA-AEEA-AEEA-γGlu-C18 diacid])FVQWLLDT-NH2; N-terminus assumed)
hGCGR/hGLP1R (hTone) (human GCGR): 0.7
pEC50 (human GCGR; [1]): > 8.30
pEC50 (human GLP1R; [2]): 9.74
pEC50 (human GLP1R; [3]): > 8.30

CC(C)C[C@H](NC(=O)[C@H](Cc1ccc(O)cc1)NC(=O)[C@H](CCCCN)NC(=O)[C@H](CO)NC(=O)[C@H](Cc1ccc(O)cc1)NC(=O)[C@H](CC(=O)O)NC(=O)[C@H](CO)NC(=O)[C@@H](NC(=O)[C@H](Cc1ccccc1)NC(=O)[C@@H](NC(=O)CNC(=O)[C@H](CCC(N)=O)NC(=O)C(C)(C)NC(=O)[C@@H](N)Cc1c[nH]cn1)[C@@H](C)O)[C@@H](C)O)C(=O)N[C@@H](CC(=O)O)C(=O)N[C@@H](C)C(=O)N[C@@H](CCCNC(=N)N)C(=O)N[C@@H](C)C(=O)N[C@@H](C)C(=O)N[C@@H](CCC(N)=O)C(=O)N[C@@H](CC(=O)O)C(=O)N[C@@H](Cc1ccccc1)C(=O)N[C@H](C(=O)N[C@@H](CCCCNC(=O)COCCOCCNC(=O)COCCOCCNC(=O)COCCOCCNC(=O)CC[C@H](NC(=O)CCCCCCCCCCCCCCCCC(=O)O)C(=O)O)C(=O)N[C@@H](Cc1c[nH]c2ccccc12)C(=O)N[C@@H](CC(C)C)C(=O)N[C@@H](CCS(C)(=O)=O)C(=O)N[C@@H](CC(=O)O)C(=O)N[C@H](C(N)=O)[C@@H](C)O)C(C)C [TP680] (H-H[Aib]QGTFTSDYSKYLDARAAQDFVK([AEEA-AEEA-AEEA-γGlu-C18 diacid])WL[Met(O2)]DT-NH2; N-terminus assumed)
hGCGR/hGLP1R (hTone) (human GCGR): 3.0
pEC50 (human GCGR; [1]): > 8.30
pEC50 (human GLP1R; [2]): 9.72
pEC50 (human GLP1R; [3]): > 8.30

CC(C)C[C@H](NC(=O)[C@H](Cc1ccc(O)cc1)NC(=O)[C@H](CCCCN)NC(=O)[C@H](CO)NC(=O)[C@H](Cc1ccc(O)cc1)NC(=O)[C@H](CC(=O)O)NC(=O)[C@H](CO)NC(=O)[C@@H](NC(=O)[C@H](Cc1ccccc1)NC(=O)[C@@H](NC(=O)CNC(=O)[C@H](CCC(N)=O)NC(=O)C(C)(C)NC(=O)[C@@H](N)Cc1c[nH]cn1)[C@@H](C)O)[C@@H](C)O)C(=O)N[C@@H](CC(=O)O)C(=O)N[C@@H](C)C(=O)N[C@@H](CCCNC(=N)N)C(=O)N[C@@H](C)C(=O)N[C@@H](C)C(=O)N[C@@H](CCC(N)=O)C(=O)N[C@@H](CCCCNC(=O)COCCOCCNC(=O)COCCOCCNC(=O)CC[C@H](NC(=O)CCCCCCCCCCCCCCCCC(=O)O)C(=O)O)C(=O)N[C@@H](Cc1ccccc1)C(=O)N[C@H](C(=O)N[C@@H](CCC(N)=O)C(=O)N[C@@H](Cc1c[nH]c2ccccc12)C(=O)N[C@@H](CC(C)C)C(=O)N[C@@H](CCS(C)(=O)=O)C(=O)N[C@@](C)(CC(=O)O)C(=O)N[C@H](C(N)=O)[C@@H](C)O)C(C)C [TP681] (H-H[Aib]QGTFTSDYSKYLDARAAQK([AEEA-AEEA-γGlu-C18 diacid])FVQWL[Met(O2)][αMeD]T-NH2; N-terminus assumed)
pEC50 (human GCGR; [4]): 9.57
hGCGR/hGLP1R (hTone) (human GCGR): 1.8
pEC50 (human GCGR; [1]): > 8.30
pEC50 (human GLP1R; [3]): > 8.30

CC(C)C[C@H](NC(=O)[C@H](CCCCN)NC(=O)[C@H](CCCCN)NC(=O)[C@H](CO)NC(=O)[C@H](Cc1ccc(O)cc1)NC(=O)[C@H](CCC(=O)O)NC(=O)[C@H](CO)NC(=O)[C@@H](NC(=O)[C@H](Cc1ccccc1)NC(=O)[C@@H](NC(=O)CNC(=O)[C@H](CCC(N)=O)NC(=O)C(C)(C)NC(=O)[C@@H](N)Cc1c[nH]cn1)[C@@H](C)O)[C@@H](C)O)C(=O)N[C@@H](CC(=O)O)C(=O)N[C@@H](C)C(=O)N[C@@H](CCCNC(=N)N)C(=O)N[C@@H](C)C(=O)N[C@@H](C)C(=O)N[C@@H](CCC(N)=O)C(=O)N[C@@H](CC(=O)O)C(=O)N[C@@H](Cc1ccccc1)C(=O)N[C@H](C(=O)N[C@@H](CCCCNC(=O)COCCOCCNC(=O)COCCOCCNC(=O)CC[C@H](NC(=O)CCCCCCCCCCCCCCCCC(=O)O)C(=O)O)C(=O)N[C@@H](Cc1c[nH]c2ccccc12)C(=O)N[C@@H](CC(C)C)C(=O)N[C@@H](CCS(C)(=O)=O)C(=O)N[C@@H](CC(=O)O)C(=O)N[C@H](C(N)=O)[C@@H](C)O)C(C)C [TP699] (H-H[Aib]QGTFTSEYSKKLDARAAQDFVK([AEEA-AEEA-γGlu-C18 diacid])WL[Met(O2)]DT-NH2)
pEC50 (human GCGR; [4]): < 7.70
pEC50 (human GLP1R; [2]): < 7.70

CC(C)C[C@H](NC(=O)[C@H](Cc1ccc(O)cc1)NC(=O)[C@H](CCCCN)NC(=O)[C@H](CO)NC(=O)[C@H](Cc1ccc(O)cc1)NC(=O)[C@H](CC(=O)O)NC(=O)[C@H](CO)NC(=O)[C@@H](NC(=O)[C@H](Cc1ccccc1)NC(=O)[C@@H](NC(=O)CNC(=O)[C@H](CCC(N)=O)NC(=O)C(C)(C)NC(=O)[C@@H](N)Cc1c[nH]cn1)[C@@H](C)O)[C@@H](C)O)C(=O)N[C@@H](CC(=O)O)C(=O)N[C@@H](CCC(=O)O)C(=O)N[C@@H](CCCNC(=N)N)C(=O)N[C@@H](C)C(=O)N[C@@H](C)C(=O)N[C@@H](CCCCN)C(=O)N[C@@H](CC(=O)O)C(=O)N[C@@H](Cc1ccccc1)C(=O)N[C@H](C(=O)N[C@@H](CCCCNC(=O)COCCOCCNC(=O)COCCOCCNC(=O)CC[C@H](NC(=O)CCCCCCCCCCCCCCCCC(=O)O)C(=O)O)C(=O)N[C@@H](Cc1c[nH]c2ccccc12)C(=O)N[C@@H](CC(C)C)C(=O)N[C@@H](CCS(C)(=O)=O)C(=O)N[C@@H](CC(=O)O)C(=O)N[C@H](C(N)=O)[C@@H](C)O)C(C)C [TP701] (H-H[Aib]QGTFTSDYSKYLDERAAKDFVK([AEEA-AEEA-γGlu-C18 diacid])WL[Met(O2)]DT-NH2)
pEC50 (human GCGR; [4]): < 8.31
pEC50 (human GLP1R; [2]): 9.74

Reference: US11566057B2, “Long-acting co-agonists of the glucagon and GLP-1 receptors” (Merck Sharp & Dohme Corp., priority 2017, dated 2023)
